Measurements reported in the NIST ThermoML archive (doi:10.1021/je7002836).

How the values were obtained:
[1] = xn = mol fraction of the nth substance listed; conditions: 101 kPa, Liquid
[2] = molar heat capacity at constant pressure; xn = mol fraction of the nth substance listed; conditions: 101 kPa, Liquid

C[N+](=O)[O-] [nitromethane] + CCCC[n+]1cccc(C)c1.F[B-](F)(F)F
Conditions | mass density, [1] [kg/m3] | molar heat capacity at constant pressure, [2] [J/K/mol]
293.15 K, x2 = 0 | 1140.2 | 106.6
293.15 K, x2 = 0.0517 | 1153.4 | 120.3
293.15 K, x2 = 0.1038 | 1161.5 | 134.2
293.15 K, x2 = 0.1952 | 1170.3 | 159.9
293.15 K, x2 = 0.3078 | 1176.7 | –
293.15 K, x2 = 0.3563 | 1178.7 | 205.2
293.15 K, x2 = 0.3998 | 1180.1 | 217.4
293.15 K, x2 = 0.5121 | 1183 | 249.2
293.15 K, x2 = 0.5994 | 1184.6 | 273.7
293.15 K, x2 = 0.6856 | 1185.8 | 297.7
293.15 K, x2 = 0.7863 | 1186.9 | 326.4
293.15 K, x2 = 0.8842 | 1187.7 | 353.6
293.15 K, x2 = 0.9034 | 1187.9 | 359.1
293.15 K, x2 = 0.941 | 1188.2 | 369.8
298.15 K, x2 = 0 | 1133.4 | 106.9
298.15 K, x2 = 0.0517 | 1147.4 | 120.5
298.15 K, x2 = 0.1038 | 1156 | 134.7
298.15 K, x2 = 0.1952 | 1165.4 | 160.4
298.15 K, x2 = 0.3078 | 1172.2 | –
298.15 K, x2 = 0.3563 | 1174.3 | 206
298.15 K, x2 = 0.3998 | 1175.9 | 218.3
298.15 K, x2 = 0.5121 | 1179 | 250.2
298.15 K, x2 = 0.5994 | 1180.7 | 274.8
298.15 K, x2 = 0.6856 | 1182.1 | 299
298.15 K, x2 = 0.7863 | 1183.3 | 327.8
298.15 K, x2 = 0.8842 | 1184.2 | 355.3
298.15 K, x2 = 0.9034 | 1184.4 | 360.8
298.15 K, x2 = 0.941 | 1184.8 | 371.6
303.15 K, x2 = 0 | 1126.6 | 107.3
303.15 K, x2 = 0.0517 | 1141.3 | 120.9
303.15 K, x2 = 0.1038 | 1150.5 | 135.2
303.15 K, x2 = 0.1952 | 1160.4 | 161
303.15 K, x2 = 0.3078 | 1167.8 | –
303.15 K, x2 = 0.3563 | 1170 | 206.9
303.15 K, x2 = 0.3998 | 1171.6 | 219.3
303.15 K, x2 = 0.5121 | 1175 | 251.4
303.15 K, x2 = 0.5994 | 1176.9 | 276.2
303.15 K, x2 = 0.6856 | 1178.3 | 300.6
303.15 K, x2 = 0.7863 | 1179.7 | 329.6
303.15 K, x2 = 0.8842 | 1180.7 | 357.3
303.15 K, x2 = 0.9034 | 1180.9 | 362.9
303.15 K, x2 = 0.941 | 1181.3 | 373.7
308.15 K, x2 = 0 | 1119.7 | 107.7
308.15 K, x2 = 0.0517 | 1135.3 | 121.3
308.15 K, x2 = 0.1038 | 1144.9 | 135.7
308.15 K, x2 = 0.1952 | 1155.5 | 161.8
308.15 K, x2 = 0.3078 | 1163.3 | –
308.15 K, x2 = 0.3563 | 1165.7 | 208
308.15 K, x2 = 0.3998 | 1167.4 | 220.5
308.15 K, x2 = 0.5121 | 1171 | 252.8
308.15 K, x2 = 0.5994 | 1173.1 | 277.9
308.15 K, x2 = 0.6856 | 1174.6 | 302.5
308.15 K, x2 = 0.7863 | 1176.1 | 331.7
308.15 K, x2 = 0.8842 | 1177.2 | 359.7
308.15 K, x2 = 0.9034 | 1177.4 | 365.3
308.15 K, x2 = 0.941 | 1177.9 | 376.2
313.15 K, x2 = 0 | 1112.9 | 108.2
313.15 K, x2 = 0.0517 | 1129.2 | 121.9
313.15 K, x2 = 0.1038 | 1139.4 | 136.4
313.15 K, x2 = 0.1952 | 1150.6 | 162.5
313.15 K, x2 = 0.3078 | 1158.8 | –
313.15 K, x2 = 0.3563 | 1161.4 | 209.2
313.15 K, x2 = 0.3998 | 1163.2 | 221.9
313.15 K, x2 = 0.5121 | 1167 | 254.4
313.15 K, x2 = 0.5994 | 1169.2 | 279.8
313.15 K, x2 = 0.6856 | 1170.9 | 304.6
313.15 K, x2 = 0.7863 | 1172.5 | 334.1
313.15 K, x2 = 0.8842 | 1173.7 | 362.4
313.15 K, x2 = 0.9034 | 1174 | 368.1
313.15 K, x2 = 0.941 | 1174.4 | 379
318.15 K, x2 = 0 | 1106 | 108.6
318.15 K, x2 = 0.0517 | 1123.1 | 122.4
318.15 K, x2 = 0.1038 | 1133.9 | 137.1
318.15 K, x2 = 0.1952 | 1145.6 | 163.5
318.15 K, x2 = 0.3078 | 1154.4 | –
318.15 K, x2 = 0.3563 | 1157.1 | 210.6
318.15 K, x2 = 0.3998 | 1159.1 | 223.5
318.15 K, x2 = 0.5121 | 1163.1 | 256.3
318.15 K, x2 = 0.5994 | 1165.4 | 281.9
318.15 K, x2 = 0.6856 | 1167.2 | 307
318.15 K, x2 = 0.7863 | 1169 | 336.8
318.15 K, x2 = 0.8842 | 1170.3 | 365.5
318.15 K, x2 = 0.9034 | 1170.5 | 371.1
318.15 K, x2 = 0.941 | 1171 | 382.3
